# Laboratory results published in patent US8227419B2, “Method of treating conditions associated with airway tissue remodeling” (CRC For Asthma and Airways Ltd., priority 2006, dated 2012).
# Entries after “also recorded” stand apart in the source; their conditions may differ. Where a SMILES comes first, the peptide text is derived from it.
# Legend:
# [1] = tested on: asthmatic smooth muscle cells; assay: MTT proliferation assay, asthmatic airway smooth muscle cells; format: cell-based, human; conditions: peptide 4.5 μM; all timepoints of FIG. 11; n=4 ASM cell lines
# Source text: Human airway smooth muscle cells were isolated by microdissection from bronchial tissue obtained from either bronchoscopy, lung tissue obtained from lung transplants, or lung tissue resected at thoracotomy. Ethical approval for the use of the lung tissue for/in vitro/experimentation was granted by the Human Ethics Committee of the University of Sydney, and the Sydney South West Area Health Service, and informed consent was received from all subjects. Asthmatic ASM cells were isolated from airway biopsies, and all but one of the non asthmatic derived ASM cells were isolated from either resected lung tissue, or lung transplantation (both donor and recipient) This isolation and culture of ASM cells was carried out according to a method described by Johnson et al. 1995. Briefly, with the use of a dissecting microscope, sterile equipment and aseptic technique, bronchial airways were dissected from the surrounding parenchyma and cut longitudinally. The bronchi were then briefly dipped in 70% (v/v) ethanol in water to kill any surface organisms. The bronchi were then washed in sterile Hanks balanced salt solution three times and pinned down in a sterile Petri dish with the epithelial surface facing upwards. […] Proliferation was assessed using an MTT assay (SIGMA-aldrich, Missouri, USA) at day 3, 7 and 9. […] The specific absorption of each well was measured at 690 nm (reference) and 570 nm.
# [2] = tested on: primary lung endothelial cells; assay: MTT proliferation assay, primary lung endothelial cells; format: cell-based, human; conditions: peptide 4.5 μM; day 3, 7 and 9; n=5 cell lines
# Experimental: Human pulmonary endothelial cells were isolated from bronchial tissue obtained during lung transplantation. Blood vessels were dissected free from surrounding tissue and cut longitudinally and then cut into approximately 5 mm segments. Blood vessel segments were then placed in a 15 ml falcon tube containing 10 ml of digestive buffer, (1 mg (250 U)/ml type 2 collagenase, 1 U/ml dispase, 10 mg/ml BSA) the tube was placed in the incubator for 10 minutes and agitated every 2 minutes. Digestive mixture was changed every 10 minutes for a total of 50 minutes. 1/10 volume of FBS was added to the supernantants that were removed every 10 minutes. Supernatants were then centrifuged at 200 g for 5 minutes. Supernantants were removed and cells were washed with culture medium, this contained 10% FBS, 10 μg/ml endothelial cell growth supplement, 20 U/ml heparin and 2% antibiotics, and centrifuged at 200 g for 5 minutes. Supernantants were removed and cells were placed in 75 cm^2 vented tissue culture flasks (Falcon Labware) containing 10 ml of culture medium, and incubated for 1 hour at 37° C. […] Proliferation was assessed using an MTT assay (SIGMA-aldrich, Missouri, USA) at day 3, 7 and 9. […] The specific absorption of each well was measured at 690 nm (reference) and 570 nm.
SMILES,inhibition of FBS-induced proliferation of asthmatic smooth muscle cells [1],inhibition of proliferation of primary lung endothelial cells [2]
CSCC[C@H](NC(=O)[C@@H](N)[C@@H](C)O)C(=O)N1CCC[C@H]1C(=O)N[C@@H](Cc1ccccc1)C(=O)N[C@@H](CC(C)C)C(=O)N[C@@H](Cc1ccccc1)C(=O)N[C@@H](CS)C(=O)N[C@@H](CC(N)=O)C(=O)N[C@H](C(=O)N[C@@H](CC(N)=O)C(=O)N[C@@H](CC(=O)O)C(=O)N[C@H](C(=O)N[C@@H](CS)C(=O)N[C@@H](CC(N)=O)C(=O)N[C@@H](Cc1ccccc1)C(=O)N[C@@H](C)C(=O)N[C@@H](CO)C(=O)N[C@@H](CCCNC(=N)N)C(=O)N[C@@H](CC(N)=O)C(=O)N[C@@H](CC(=O)O)C(=O)N[C@@H](Cc1ccc(O)cc1)C(=O)N[C@@H](CO)C(=O)N[C@@H](Cc1ccc(O)cc1)C(=O)N[C@@H](Cc1c[nH]c2ccccc12)C(=O)N[C@@H](CC(C)C)C(=O)O)C(C)C)C(C)C [T7] (H-TMPFLFCNVNDVCNFASRNDYSYWL-OH; N-terminus and C-terminus assumed),Neither T3 nor T7 peptides were shown to be able to inhibit; also recorded: not inhibited,able to inhibit the proliferation; also recorded: inhibited proliferation at both day 7 and day 9
CSCC[C@H](NC(=O)[C@@H](NC(=O)[C@@H](NC(=O)[C@H](Cc1ccccc1)NC(=O)[C@H](CCCNC(=N)N)NC(=O)[C@H](CCC(N)=O)NC(=O)[C@@H](N)CC(C)C)[C@@H](C)O)[C@@H](C)O)C(=O)N1CCC[C@H]1C(=O)N[C@@H](Cc1ccccc1)C(=O)N[C@@H](CC(C)C)C(=O)N[C@@H](Cc1ccccc1)C(=O)N[C@@H](CS)C(=O)N[C@@H](CC(N)=O)C(=O)N[C@H](C(=O)N[C@@H](CC(N)=O)C(=O)N[C@@H](CC(=O)O)C(=O)N[C@H](C(=O)N[C@@H](CS)C(=O)N[C@@H](CC(N)=O)C(=O)N[C@@H](Cc1ccccc1)C(=O)O)C(C)C)C(C)C [T3] (H-LQRFTTMPFLFCNVNDVCNF-OH; N-terminus and C-terminus assumed),Neither T3 nor T7 peptides were shown to be able to inhibit; also recorded: not inhibited,able to inhibit the proliferation; also recorded: significantly inhibited by the presence of T3 peptide at all timepoints
